Reference: paper PMC6273635, “Synthesis and Structure-Activity Relationships of Imidazole-Coumarin Conjugates against Hepatitis C Virus” (Molecules, 2016)
Read-outs that look alike come from different tables or passages of the source.

Tests used:
[1] = tested on: HCV genotype 1b subgenomic Huh 5-2 replicon system; assay: Antiviral effect on HCV 1b subgenomic replicon replication in Huh 5-2 cells; format: cell-based, Hepatitis C virus
Procedure: (§1) The antiviral activity of conjugated compounds 3a–g, 7a–e, 9a,b,d–f, and 11b,e,f in the HCV genotype 1b subgenomic Huh 5-2 replicon system was evaluated according to established procedures. On the basis of the dose-response curves that were obtained, the concentration of a compound that inhibited virus replication by 50% (i.e., EC50) and the concentration of compound that reduced host cell metabolism by 50% (i.e., CC50) were obtained. These values subsequently allowed us to calculate the selectivity index (i.e., SI = CC50/EC50), which is a measure for the therapeutic window of the compound in an assay system. […] The observed antiviral effect of other compounds was most likely related mainly to the pleiotropic or aspecific effect on the host cell.

[2] = Anti-metabolic effect on host cell metabolism (MTS method) in Huh 5-2 replicon cells; format: cell-based; details: human, Huh 5-2 cells (HCV genotype 1b subgenomic replicon), concentration reducing host cell metabolism by 50%, average of triplicate determinations
Procedure: as §1

[3] = tested on: HCV genotype 1b subgenomic Huh 5-2 replicon system; parameters: method as in PMID 17977606; details: HCV 1b subgenomic replicon in Huh 5-2 cells; reference known compounds; ref [11]; cited from earlier work
Huh 5-2 cells [4] = tested on: Huh 5-2 cells; parameters: method as in PMID 17977606; details: host cell metabolism, MTS method, reference known compounds, ref [11]; cited from earlier work
Huh 5-2 cells [5] = assay: Anti-metabolic effect on host cell metabolism (MTS method) in Huh 5-2 replicon cells; format: cell-based; details: concentration reducing host cell metabolism by 50%, average of triplicate determinations
Procedure: as §1

Row | Structure (SMILES) | EC50 ([1]; Hepatitis C virus, Huh-5-2) [µM] | CC50 [2] [µM] | melting point [°C] | EC50 [3] [µM] | CC50 (Huh 5-2 cells [4]) [µM] | EC50 ([1]; concentration inhibiting virus replication by 50%, real-time quantitative RT-PCR, HCV 1b Huh 5-2 replicon, average of triplicate determinations, read-out: EC50) [µM] | CC50 (Huh 5-2 cells [5]) [µM]
1 | O=c1oc2ccccc2cc1CSc1ncc[nH]1 [Compound 3a, 2-[(Coumarin-3’-yl)methylthio]imidazole] | 30 | 122 | 252 to 252.8 |  |  |  | 
2 | O=c1oc2ccc(F)cc2cc1CSc1ncc[nH]1 [Compound 3b, 2-[(6′-Fluorocoumarin-3′-yl)methylthio]imidazole] | 7.2 | 83 | 258.6 to 259.4 |  |  |  | 
3 | O=c1oc2ccc(Cl)cc2cc1CSc1ncc[nH]1 [Compound 3c, 2-[(6′-Chlorocoumarin-3′-yl)methylthio]imidazole] | 9.7 | 85 | 266.2 to 270 |  |  |  | 
4 | O=c1oc2ccc(Br)cc2cc1CSc1ncc[nH]1 [Compound 3d, 2-[(6′-Bromocoumarin-3′-yl)methylthio]imidazole] | 5.1 | 75 | 276.8 to 277.4 |  |  |  | 
5 | COc1cccc2cc(CSc3ncc[nH]3)c(=O)oc12 [Compound 3e, 2-[(8′-Methoxycoumarin-3′-yl)methylthio]imidazole] | 8.4 | 173 | 269.8 to 270.6 |  |  |  | 
6 | Cn1ccnc1SCc1cc2ccccc2oc1=O [Compound 3f, 1-Methyl-2-[(coumarin-3′-yl)methylthio]imidazole] | 6.7 | 49 | 244.2 to 244.8 |  |  |  | 
7 | Cn1ccnc1SCc1cc2cc(Cl)ccc2oc1=O [Compound 3g, 1-Methyl-2-[(6′-chlorocoumarin-3′-yl)methylthio]imidazole] | 15 | 75 | 256.2 to 257.2 |  |  |  | 
8 | O=c1oc2ccccc2cc1CSc1nccn1[C@@H]1O[C@H](CO)[C@@H](O)[C@H]1O [Compound 7a, 1-(β-D-Ribofuranos-1″-yl)-2-[(coumarin-3′-yl)methylthio]imidazole] | 59 | 128 | 164.6 to 165.4 |  |  |  | 
9 | O=c1oc2ccc(F)cc2cc1CSc1nccn1[C@@H]1O[C@H](CO)[C@@H](O)[C@H]1O [Compound 7b, 1-(β-D-Ribofuranos-1″-yl)-2-[(6′-fluorocoumarin-3′-yl)methylthio]imidazole] | 26 | 122 | 171.2 to 172.4 |  |  |  | 
10 | O=c1oc2ccc(Cl)cc2cc1CSc1nccn1[C@@H]1O[C@H](CO)[C@@H](O)[C@H]1O [Compound 7c, 1-(β-D-Ribofuranos-1″-yl)-2-[(6′-chlorocoumarin-3′-yl)methylthio]imidazole] | 14 | 85 | 178.8 to 179.6 |  |  |  | 
11 | O=c1oc2ccc(Br)cc2cc1CSc1nccn1[C@@H]1O[C@H](CO)[C@@H](O)[C@H]1O [Compound 7d, 1-(β-D-Ribofuranos-1″-yl)-2-[(6′-bromocoumarin-3′-yl)methylthio]imidazole] | 19 | 107 | 188.8 to 189.4 |  |  |  | 
12 | COc1cccc2cc(CSc3nccn3[C@@H]3O[C@H](CO)[C@@H](O)[C@H]3O)c(=O)oc12 [Compound 7e, 1-(β-D-Ribofuranos-1″-yl)-2-[(8′-methoxycoumarin-3′-yl)methylthio]imidazole] | 34 | 119 | 169.6 to 170.4 |  |  |  | 
13 | O=c1oc2ccccc2cc1CSc1nc2c(=O)[nH]cnc2n1[C@@H]1O[C@H](CO)[C@@H](O)[C@H]1O [Compound 9a, 8-[(Coumarin-3′-yl)methylthio]inosine] | 61 | 109 |  |  |  |  | 
14 | O=c1oc2ccc(F)cc2cc1CSc1nc2c(=O)[nH]cnc2n1[C@@H]1O[C@H](CO)[C@@H](O)[C@H]1O [Compound 9b, 8-[(6′-Fluorocoumarin-3′-yl)methylthio]inosine] | 73 | 105 |  |  |  |  | 
15 | O=c1oc2ccc(Br)cc2cc1CSc1nc2c(=O)[nH]cnc2n1[C@@H]1O[C@H](CO)[C@@H](O)[C@H]1O [Compound 9d, 8-[(6′-Bromocoumarin-3′-yl)methylthio]inosine] | 70 | 93 |  |  |  |  | 
16 | COc1cccc2cc(CSc3nc4c(=O)[nH]cnc4n3[C@@H]3O[C@H](CO)[C@@H](O)[C@H]3O)c(=O)oc12 [Compound 9e, 8-[(8′-Methoxycoumarin-3′-yl)methylthio]inosine] | 102 | 102 |  |  |  |  | 
17 | Cc1ccc2oc(=O)c(CSc3nc4c(=O)[nH]cnc4n3[C@@H]3O[C@H](CO)[C@@H](O)[C@H]3O)cc2c1 [Compound 9f, 8-[(6′-Methylcoumarin-3′-yl)methylthio]inosine] | 106 | 106 |  |  |  |  | 
18 | Nc1nc2c(nc(SCc3cc4cc(F)ccc4oc3=O)n2[C@@H]2O[C@H](CO)[C@@H](O)[C@H]2O)c(=O)[nH]1 [Compound 11b, 8-[(6′-Fluorocoumarin-3′-yl)methylthio]guanosine] | 102 | 102 |  |  |  |  | 
19 | COc1cccc2cc(CSc3nc4c(=O)[nH]c(N)nc4n3[C@@H]3O[C@H](CO)[C@@H](O)[C@H]3O)c(=O)oc12 [Compound 11e, 8-[(8′-Methoxycoumarin-3′-yl)methylthio]guanosine] | 99 | 99 |  |  |  |  | 
20 | Cc1ccc2oc(=O)c(CSc3nc4c(=O)[nH]c(N)nc4n3[C@@H]3O[C@H](CO)[C@@H](O)[C@H]3O)cc2c1 [Compound 11f, 8-[(6′-Methylcoumarin-3′-yl)methylthio]guanosine] | 103 | 103 |  |  |  |  | 
21 | O=c1oc2ccccc2cc1CSc1nc2ccccc2[nH]1 [Compound 12a] |  |  |  | 27 | 90 |  | 
22 | O=c1oc2ccc(Br)cc2cc1CSc1nc2ccccc2[nH]1 [Compound 12d] |  |  |  | 4 | 42 |  | 
23 | COc1cccc2cc(CSc3nc4ccccc4[nH]3)c(=O)oc12 [Compound 12e] |  |  |  | 10 | 27 |  | 
24 | O=c1ccc2ccccc2o1 [coumarin] | > 150 | > 500 |  |  |  |  | 
25 | c1c[nH]cn1 [imidazole] |  |  |  |  |  | > 150 | > 500
